Experimental data from patent publication US20210255193A1, “LYSINE REACTIVE PROBES AND USES THEREOF” (The Scripps Research Institute, priority 2017, published 2021).

Legend:
Assay in all cases: competitive isoTOP-ABPP
Type in all cases: binding
[1] = biological target: T1, TPD52L2 Tumor protein D54 (Homo sapiens, UniProt O43399); design: key to isoTOP-ABPP reactivity ratio at lysine O43399_K90: R = MS1 peak area ratio, DMSO (heavy) / compound-treated (light); conditions: 50 uM, in vitro; for isoTOP-ABPP ratio (R) at liganded lysine O43399_K90: sol, 231
T1 construct: isoTOP-ABPP experiments performed in cell lysates (in vitro); endogenous in cells; host or cells: MDA-MB-231 soluble lysate
T1 sequence (O43399 whole entry): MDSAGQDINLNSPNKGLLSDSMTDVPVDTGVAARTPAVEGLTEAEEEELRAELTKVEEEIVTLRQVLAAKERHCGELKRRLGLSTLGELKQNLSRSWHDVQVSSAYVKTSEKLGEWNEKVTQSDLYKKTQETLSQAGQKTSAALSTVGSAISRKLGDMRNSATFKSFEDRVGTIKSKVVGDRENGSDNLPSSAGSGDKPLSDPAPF
Procedure: (§1) In vitro covalent fragment treatment for isoTOP-ABPP. All compounds were made up as solutions in DMSO (100×) and were used at a final concentration of 50 μM for activated esters and 100 μM for guanidinylating agents. For each profiling sample, 0.5 ml of lysate was treated with 5 μl of the 100× compound stock solution or 5 μl of DMSO. Samples were treated with activated esters for
(§2) STP-alkyne labeling and click chemistry. For concentration-dependent reactivity measurements by isoTOP-ABPP, 0.5 ml proteome aliquots were treated at ambient temperature with 1 mM STP-alkyne 1 (5 μl of 100 mM stock in DMSO) and 0.1 mM STP alkyne 1 (5 μl of 10 mM stock in DMSO), respectively. For competitive isoTOP-ABPP, after in vitro fragment treatment (detailed above), the samples were labeled for 1 h at ambient temperature with 0.1 mM STP-alkyne 1 (5 μl of 10 mM stock in DMSO). Samples were conjugated by copper-mediated azide-alkyne cycloaddition (CuAAC) to either the light (1 mM STP-alkyne or fragment treated) or heavy (0.1 mM STP-alkyne or DMSO treated) TEV tags (10 μl of 5 mM stocks in DMSO, final concentration=100 μM) using tris(2-carboxyethyl)phosphine hydrochloride
(§3) R value calculation and processing. The ratios of light and heavy MS1 peaks for each unique peptide were quantified with a CIMAGE software using default parameters (3 MS1 acquisitions per peak and signal to noise threshold set to 2.5). For reactivity measurements by isoTOP-ABPP, the R value was calculated from the ratio of MS1 peak areas, comparing the 1 mM STP alkyne sample (light TEV tag) with the 0.1 mM STP alkyne sample (heavy TEV tag). For competitive isoTOP-ABPP, the R value was calculated from the ratio of MS1 peak areas, comparing the DMSO treated sample (heavy TEV tag) with the compound treated sample (light TEV tag). […] Ratios for unique peptide entries are calculated for each experiment; overlapping peptides with the same modified lysine (for example, different charge states, MudPIT chromatographic steps or tryptic termini) are grouped together and the median ratio is reported as the final ratio (R). The peptide ratios reported by CIMAGE were further filtered to ensure the removal or correction of low-quality ratios in each individual data set. The quality filters applied were the following: removal of half tryptic peptides; for ratios with high standard deviations from the median (90% of the median or above) the lowest ratio was taken instead of the median; removal of peptides with R=20 and only a single MS2 event triggered during the elution of the parent ion; manual annotation of all the peptides with ratios of 20, removing any peptides with low quality elution profiles that remained after the previous curation steps (only done for competitive isoTOP-ABPP).
(§4) Cross-data processing for fragment screening. For compound treated samples, biological replicates of the same condition were averaged, if the standard deviation was below 60% of the mean; otherwise, for lysines with at least one R value <4 for a particular compound, the lowest value of the ratio set was taken. For lysines, where all R values for a particular compound were ≥4, the average was reported. For peptides containing several possible modified lysines, the lysine with the highest number of quantification events was used for analysis and the remaining, redundant peptides were reported as alternative modification sites. Peptides included in the aggregate dataset (those used for further bioinformatics and statistical analyses) were required to have been quantified in 2 experiments for competitive isoTOP-ABPP. Lysines were categorized as liganded, if they had at least one ratio R≥4 (hit fragments). For liganded lysines with R=20 for all liganding events, lysines were required to have been quantified with R=20 in two separate experiments and were further required to have been quantified with R<20 in one additional experiment.

[2] = biological target: T2, FECH Ferrochelatase, mitochondrial (Homo sapiens, UniProt P22830); conditions: 50 uM, in vitro; for isoTOP-ABPP ratio (R) at liganded lysine P22830_K304: sol, 231
T2 construct: isoTOP-ABPP experiments performed in cell lysates (in vitro); endogenous in cells; host or cells: soluble proteome of human cancer cell lines (MDA-MB-231; Ramos and Jurkat also prepared)
T2 sequence (P22830 55-423): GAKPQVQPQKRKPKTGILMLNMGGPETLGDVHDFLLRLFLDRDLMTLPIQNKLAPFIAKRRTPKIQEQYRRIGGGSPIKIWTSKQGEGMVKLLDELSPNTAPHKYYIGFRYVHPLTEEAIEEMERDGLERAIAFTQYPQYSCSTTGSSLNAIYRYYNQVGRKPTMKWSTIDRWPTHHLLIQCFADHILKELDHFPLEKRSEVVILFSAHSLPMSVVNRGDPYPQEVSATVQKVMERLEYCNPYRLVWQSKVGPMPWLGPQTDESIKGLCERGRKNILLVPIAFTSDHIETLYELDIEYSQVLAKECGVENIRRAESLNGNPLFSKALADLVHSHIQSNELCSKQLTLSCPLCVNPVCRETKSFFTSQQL
In short: (§5)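 Cell lysate treated in vitro with fragments (50 μM activated esters, 100 μM guanidinylating agents) or DMSO, labelled 1 h at ambient temperature with 0.1 mM STP-alkyne, CuAAC-tagged with light/heavy TEV tags, analysed by MS. R = DMSO/compound MS1 peak-area ratio; lysines with R≥4 called liganded.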

EEF2 Elongation factor 2 = biological target: T3, EEF2 Elongation factor 2 (Homo sapiens, UniProt P13639); conditions: 50 uM, in vitro; for isoTOP-ABPP ratio (R) at liganded lysine P13639_K235 / isoTOP-ABPP ratio (R) at liganded lysine P13639_K318: sol, 231
T3 construct: isoTOP-ABPP experiments performed in cell lysates (in vitro); endogenous in cells; host or cells: soluble proteome of human cancer cell lines (MDA-MB-231; Ramos and Jurkat also prepared)
In short: as §5

[3] = biological target: T4, MRPS24 28S ribosomal protein S24, mitochondrial (Homo sapiens, UniProt Q96EL2); conditions: 50 uM, in vitro; for isoTOP-ABPP ratio (R) at liganded lysine Q96EL2_K94: sol, 231
T4 construct: isoTOP-ABPP experiments performed in cell lysates (in vitro); endogenous in cells; host or cells: soluble proteome of human cancer cell lines (MDA-MB-231; Ramos and Jurkat also prepared)
In short: as §5

[4] = biological target: T5, PSME3 Proteasome activator complex subunit 3 (Homo sapiens, UniProt P61289); design: key to isoTOP-ABPP reactivity ratio at lysine P61289_K237: R = MS1 peak area ratio, DMSO (heavy) / compound-treated (light); key to isoTOP-ABPP reactivity ratio at lysine P61289_K12: R = MS1 peak area ratio, DMSO (heavy) / compound-treated (light); capped at 20; conditions: 50 uM, in vitro; for isoTOP-ABPP ratio (R) at liganded lysine P61289_K237 / isoTOP-ABPP ratio (R) at liganded lysine P61289_K12: sol, 231
T5 construct: isoTOP-ABPP experiments performed in cell lysates (in vitro); endogenous in cells; host or cells: soluble proteome of human cancer cell lines (MDA-MB-231, Ramos, Jurkat)
T5 sequence (P61289 whole entry, one chain of several): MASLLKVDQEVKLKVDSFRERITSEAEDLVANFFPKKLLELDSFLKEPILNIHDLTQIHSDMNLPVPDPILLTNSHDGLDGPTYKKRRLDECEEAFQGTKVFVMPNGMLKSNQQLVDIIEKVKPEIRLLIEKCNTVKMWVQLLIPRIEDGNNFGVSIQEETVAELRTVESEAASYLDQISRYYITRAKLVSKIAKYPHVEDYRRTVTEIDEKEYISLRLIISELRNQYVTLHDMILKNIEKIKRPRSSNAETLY
Procedure: as §1, §2, §3, §4

| SMILES | isoTOP-ABPP reactivity ratio at lysine O43399_K90 ([1]; 231 sol) | isoTOP-ABPP reactivity ratio at lysine P22830_K304 ([2]; 231 sol) | isoTOP-ABPP reactivity ratio at lysine P13639_K235 (EEF2 Elongation factor 2; 231 sol) | isoTOP-ABPP reactivity ratio at lysine P13639_K318 (EEF2 Elongation factor 2; 231 sol) | isoTOP-ABPP reactivity ratio at lysine Q96EL2_K94 ([3]; 231 sol) | isoTOP-ABPP reactivity ratio at lysine P61289_K12 ([4]; 231 sol) | isoTOP-ABPP reactivity ratio at lysine P61289_K237 ([4]; 231 sol) | isoTOP-ABPP ratio (R) at liganded lysine O43399_K90 [1] | isoTOP-ABPP ratio (R) at liganded lysine P22830_K304 [2] | isoTOP-ABPP ratio (R) at liganded lysine P13639_K235 (EEF2 Elongation factor 2) | isoTOP-ABPP ratio (R) at liganded lysine P13639_K318 (EEF2 Elongation factor 2) | isoTOP-ABPP ratio (R) at liganded lysine Q96EL2_K94 [3] | isoTOP-ABPP ratio (R) at liganded lysine P61289_K237 [4] | isoTOP-ABPP ratio (R) at liganded lysine P61289_K12 [4] |
| --- | --- | --- | --- | --- | --- | --- | --- | --- | --- | --- | --- | --- | --- | --- |
| COc1cc(CCC(=O)Oc2ccc([N+](=O)[O-])cc2[N+](=O)[O-])cc(OC)c1OC [fragment 33, 2,4-Dinitrophenyl 3-(3,4,5-trimethoxyphenyl)propanoate] | 1.3 | 1.7 | 1.0 | 0.9 | 1.4 | 2.1 | 1.1 |  |  |  |  |  |  |  |
| O=C(CCc1coc2cc(F)ccc2c1=O)Oc1ccc([N+](=O)[O-])cc1[N+](=O)[O-] [fragment 36, 2,4-Dinitrophenyl 3-(7-fluoro-4-oxo-4H-chromen-3-yl)propanoate] |  |  |  |  |  |  |  | 1.3 | 2.0 | 1.0 | 1.0 | 2.8 | 1.4 |  |
| O=C(CC12CC3CC(CC(C3)C1)C2)Oc1ccc([N+](=O)[O-])cc1[N+](=O)[O-] [fragment 38, 2,4-Dinitrophenyl 2-(adamantan-1-yl)acetate] |  |  |  |  |  |  |  | 2.9 | 1.8 | 0.9 | 0.9 | 3.1 |  | 1.9 |
| O=C(Oc1ccc([N+](=O)[O-])cc1[N+](=O)[O-])c1ccc(Oc2ccccc2)cc1 [fragment 39, 2,4-Dinitrophenyl 4-phenoxybenzoate] |  |  |  |  |  |  |  | 1.3 | 1.3 | 0.9 | 0.9 | 1.2 | 0.9 | 0.9 |
